Legend:
breast line MDA468 = assay: In vitro cell culture growth assay (MTS), MDA468; format: cell-based, human; details: MDA468 cells, three days after drug treatment
Procedure, shortened: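 Growth measured as percent of same-plate vehicle control by MTS metabolic dye conversion (A490). Breast MDA468 and prostate LNCap cells, plated a day ahead, were exposed to compounds for 3 days.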

PI3K = PI3K (Homo sapiens, UniProt P42336); assay: Fluorescence polarization assay for PI3K; format: biochemical; details: PI3Kα; read-out: PI3Kα IC50;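 further: PI3K kinase reaction on PIP2 with ATP, 30-60 min, product sensed by GST-GRP with red probe in fluorescence polarization (mP), controls without enzyme and at zero time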
prostate line LNCap = assay: In vitro cell culture growth assay (MTS), LNCap; format: cell-based, human; details: LNCap cells, three days after drug treatment;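 further: viable cell density read by absorbance at 490 nm, growth expressed as percent of vehicle-treated cells on the same plate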

PI3K, sequence (P42336 whole entry): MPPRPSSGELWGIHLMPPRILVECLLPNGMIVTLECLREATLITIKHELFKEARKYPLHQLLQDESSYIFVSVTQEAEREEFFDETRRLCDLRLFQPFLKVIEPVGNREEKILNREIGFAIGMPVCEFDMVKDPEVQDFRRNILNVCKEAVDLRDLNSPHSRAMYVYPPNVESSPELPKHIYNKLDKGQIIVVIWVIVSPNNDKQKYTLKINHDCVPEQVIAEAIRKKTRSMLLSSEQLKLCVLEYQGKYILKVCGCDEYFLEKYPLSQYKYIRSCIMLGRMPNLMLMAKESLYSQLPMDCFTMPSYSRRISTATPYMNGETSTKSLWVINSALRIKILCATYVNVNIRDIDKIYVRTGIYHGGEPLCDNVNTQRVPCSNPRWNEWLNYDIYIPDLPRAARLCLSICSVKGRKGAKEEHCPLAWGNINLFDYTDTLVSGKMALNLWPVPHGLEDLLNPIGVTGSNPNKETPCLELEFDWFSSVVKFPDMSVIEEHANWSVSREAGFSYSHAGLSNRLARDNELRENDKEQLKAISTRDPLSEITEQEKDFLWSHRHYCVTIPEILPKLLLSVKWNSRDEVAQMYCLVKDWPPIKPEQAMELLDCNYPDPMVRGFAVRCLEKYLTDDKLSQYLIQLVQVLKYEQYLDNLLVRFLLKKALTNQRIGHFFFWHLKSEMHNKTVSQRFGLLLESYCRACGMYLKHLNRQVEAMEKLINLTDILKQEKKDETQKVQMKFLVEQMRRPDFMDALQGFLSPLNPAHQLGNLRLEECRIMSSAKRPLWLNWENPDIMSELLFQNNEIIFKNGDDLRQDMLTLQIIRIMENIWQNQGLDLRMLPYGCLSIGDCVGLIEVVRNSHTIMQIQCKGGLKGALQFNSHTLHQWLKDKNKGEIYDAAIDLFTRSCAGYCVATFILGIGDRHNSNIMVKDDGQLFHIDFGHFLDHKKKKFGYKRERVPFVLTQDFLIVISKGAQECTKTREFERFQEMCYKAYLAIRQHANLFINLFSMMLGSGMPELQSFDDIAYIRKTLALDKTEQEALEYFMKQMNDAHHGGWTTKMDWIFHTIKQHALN
PI3K, sequence (P27986 whole entry partner): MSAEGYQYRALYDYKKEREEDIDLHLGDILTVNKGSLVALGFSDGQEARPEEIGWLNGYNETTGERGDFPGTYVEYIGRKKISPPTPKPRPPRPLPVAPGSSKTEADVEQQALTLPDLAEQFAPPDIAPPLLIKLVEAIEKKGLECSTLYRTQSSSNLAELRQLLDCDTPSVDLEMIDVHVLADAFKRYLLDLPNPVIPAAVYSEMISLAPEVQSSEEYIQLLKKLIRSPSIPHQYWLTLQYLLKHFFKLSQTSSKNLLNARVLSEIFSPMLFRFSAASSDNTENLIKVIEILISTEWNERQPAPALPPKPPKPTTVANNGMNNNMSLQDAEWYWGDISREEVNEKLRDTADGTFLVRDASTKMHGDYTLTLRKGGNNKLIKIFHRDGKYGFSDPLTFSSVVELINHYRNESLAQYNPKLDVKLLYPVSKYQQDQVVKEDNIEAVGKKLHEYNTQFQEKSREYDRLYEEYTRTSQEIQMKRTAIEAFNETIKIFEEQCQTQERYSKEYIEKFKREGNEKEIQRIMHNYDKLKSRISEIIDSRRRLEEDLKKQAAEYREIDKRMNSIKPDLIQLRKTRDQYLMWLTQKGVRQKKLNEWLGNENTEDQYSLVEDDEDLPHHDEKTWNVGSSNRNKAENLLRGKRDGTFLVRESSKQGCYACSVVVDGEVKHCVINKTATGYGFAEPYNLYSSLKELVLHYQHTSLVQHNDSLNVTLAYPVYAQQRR

| Compound | IC50 (PI3K) | IC50 (prostate line LNCap; Homo sapiens, LNCaP, 72 h) | IC50 (prostate line LNCap) | IC50 (breast line MDA468; Homo sapiens, 72 h) | IC50 (breast line MDA468) |
| --- | --- | --- | --- | --- | --- |
| O=C1CCC(n2ncc3c(N4CCOCC4)nc(-c4ccc5[nH]ccc5c4)nc32)CC1 [Compound 143, 4-[6-(1H-indol-5-yl)-4-morpholin-4-yl-1H-pyrazolo[3,4-d]pyrimidin-1-yl]cyclohexanone] | 703 nM | 180 nM | – | 1700 nM | – |
| CNC(=O)Nc1ccc(-c2nc(N3CCOCC3)c3cnn(C4CCN(C(=O)c5ccccc5Cl)CC4)c3n2)cc1 [Compound 601, 1-(4-{1-[1-(2-chlorobenzoyl)piperidin-4-yl]-4-morpholin-4-yl-1H-pyrazolo[3,4-d]pyrimidin-6-yl}phenyl)-3-methylurea] | 79 nM | < 27 nM | – | < 27 nM | – |
| CNC(=O)Nc1ccc(-c2nc(N3CCOCC3)c3cnn(C4CCN(CCCCO)CC4)c3n2)cc1 [Compound 743, 1-(4-{1-[1-(4-hydroxybutyl)piperidin-4-yl]-4-morpholin-4-yl-1H-pyrazolo[3,4-d]pyrimidin-6-yl}phenyl)-3-methylurea] | 212 nM | 1800 nM | – | 2200 nM | – |
| CN(C)C(=O)N1CCC(n2ncc3c(N4CCOCC4)nc(-c4ccc5[nH]ccc5c4)nc32)CC1 [Compound 95] | 2460 nM | 700 nM | – | 2100 nM | – |
| CNC(=O)Nc1ccc(-c2nc(N3CCOCC3)c3cnn(C4CCN(C(=O)c5ccc(C)nc5)CC4)c3n2)cc1 [Compound 664, 1-methyl-3-[4-(1-{1-[(6-methylpyridin-3-yl)carbonyl]piperidin-4-yl}-4-morpholin-4-yl-1H-pyrazolo[3,4-d]pyrimidin-6-yl)phenyl]urea] | 118 nM | – | 330 nM | – | 270 nM |
| CNCCNC(=O)Nc1ccc(-c2nc(N3CCOCC3)c3cnn(C4CCN(Cc5ccccc5)CC4)c3n2)cc1 [Compound 545, 1-{4-[1-(1-benzylpiperidin-4-yl)-4-morpholin-4-yl-1H-pyrazolo[3,4-d]pyrimidin-6-yl]phenyl}-3-[2-(methylamino)ethyl]urea] | 13 nM | 200 nM | – | 150 nM | – |
| NNC(=O)Nc1ccc(-c2nc(N3CCOCC3)c3cnn(C4CCN(C(=O)c5cccnc5)CC4)c3n2)cc1 [Compound 551, N-(4-{4-morpholin-4-yl-1-[1-(pyridin-3-ylcarbonyl)piperidin-4-yl]-1H-pyrazolo[3,4-d]pyrimidin-6-yl}phenyl)hydrazinecarboxamide] | 398 nM | 10000 nM | – | 14000 nM | – |
| COC(=O)Nc1ccc(-c2nc(N3CCOCC3)c3cnn(C4CCN(CC(N)=O)CC4)c3n2)cc1 [Compound 456, methyl (4-{1-[1-(2-amino-2-oxoethyl)piperidin-4-yl]-4-morpholin-4-yl-1H-pyrazolo[3,4-d]pyrimidin-6-yl}phenyl)carbamate] | 1430 nM | 1300 nM | – | 3200 nM | – |
| Nc1ccc(-c2nc(N3CCOCC3)c3cnn(C4CCC5(CC4)OCCO5)c3n2)cc1 [Compound 565, 4-[1-(1,4-dioxaspiro[4.5]dec-8-yl)-4-morpholin-4-yl-1H-pyrazolo[3,4-d]pyrimidin-6-yl]aniline] | 2050 nM | 1100 nM | – | 7200 nM | – |
| OCCCN1CCC(n2ncc3c(N4CCOCC4)nc(-c4ccc5[nH]ccc5c4)nc32)CC1 [Compound 497, 3-{4-[6-(1H-indol-5-yl)-4-morpholin-4-yl-1H-pyrazolo[3,4-d]pyrimidin-1-yl]piperidin-1-yl}propan-1-ol] | 7290 nM | 2500 nM | – | 3000 nM | – |
| CNC(=O)Nc1ccc(-c2nc(N3CCOCC3)c3cnn(C4CCN(C(=O)c5ccc(Br)cc5)CC4)c3n2)cc1 [Compound 606, 1-(4-{1-[1-(4-bromobenzoyl)piperidin-4-yl]-4-morpholin-4-yl-1H-pyrazolo[3,4-d]pyrimidin-6-yl}phenyl)-3-methylurea] | 34 nM | 52 nM | – | 180 nM | – |
| CS(=O)(=O)Nc1cccc(-c2nc(N3CCOCC3)c3cnn(-c4ccccc4)c3n2)c1 [Compound 116] | 111 nM | 20000 nM | – | 60000 nM | – |
| CNC(=O)Nc1ccc(-c2nc(N3CCOCC3)c3cnn(C4CCN(C(=O)OCC(C)C)CC4)c3n2)cc1 [Compound 754, isobutyl 4-(6-{4-[(methylcarbamoyl)amino]phenyl}-4-morpholin-4-yl-1H-pyrazolo[3,4-d]pyrimidin-1-yl)piperidine-1-carboxylate] | 72 nM | 130 nM | – | 270 nM | – |
| COc1cccc(C(=O)Nc2ccc(-c3nc(N4CCOCC4)c4cnn(C5CCCCO5)c4n3)cc2)c1 (stereo not drawn) [Compound 519, 3-methoxy-N-{4-[4-morpholin-4-yl-1-(tetrahydro-2H-pyran-2-yl)-1H-pyrazolo[3,4-d]pyrimidin-6-yl]phenyl}benzamide] | 8320 nM | 1950 nM | – | > 60000 nM | – |
| CC(C)(C)OC(=O)N1CCC[C@H](n2ncc3c(N4CCOCC4)nc(-c4ccc5[nH]ccc5c4)nc32)C1 [Compound 169] | 341 nM | 2000 nM | – | 12000 nM | – |

The next lines start with results.

| IC50 (PI3K) | IC50 (prostate line LNCap; Homo sapiens, LNCaP, 72 h) | IC50 (prostate line LNCap) | Compound | IC50 (breast line MDA468; Homo sapiens, 72 h) | IC50 (breast line MDA468) |
| --- | --- | --- | --- | --- | --- |
| 262 nM | 1200 nM | – | Brc1ccc(CN2CCC(n3ncc4c(N5CCOCC5)nc(-c5ccc6[nH]ccc6c5)nc43)CC2)cn1 [Example 173, 1-{1-[(6-bromopyridin-3-yl)methyl]piperidin-4-yl}-6-(1H-indol-5-yl)-4-morpholin-4-yl-1H-pyrazolo[3,4-d]pyrimidine] | 2700 nM | – |
| 1740 nM | 1800 nM | – | COC(=O)Nc1ccc(-c2nc(N3CCOCC3)c3cnn(C4CCN(CC(F)(F)F)CC4)c3n2)cc1 [Compound 781, methyl (4-{4-morpholin-4-yl-1-[1-(2,2,2-trifluoroethyl)piperidin-4-yl]-1H-pyrazolo[3,4-d]pyrimidin-6-yl}phenyl)carbamate] | 7900 nM | – |
| 85 nM | 170 nM | – | NC(=O)Nc1ccc(-c2nc(N3CCOCC3)c3cnn(C4CCN(C(=O)c5ccccc5)CC4)c3n2)cc1 [Example 382, 1-{4-[1-(1-benzoylpiperidin-4-yl)-4-morpholin-4-yl-1H-pyrazolo[3,4-d]pyrimidin-6-yl]phenyl}urea] | 200 nM | – |
| 593 nM | 2200 nM | – | COC(=NC#N)Nc1ccc(-c2nc(N3CCOCC3)c3cnn(C4CCN(Cc5cccnc5)CC4)c3n2)cc1 [Example 410, methyl N′-cyano-N-(4-{4-morpholin-4-yl-1-[1-(pyridin-3-ylmethyl)piperidin-4-yl]-1H-pyrazolo[3,4-d]pyrimidin-6-yl}phenyl)imidocarbamate] | 1300 nM | – |
| 1380 nM | 80 nM | – | COC(=O)N1CCC(n2ncc3c(N4CCOC(C)C4)nc(-c4ccc(NC(=O)NC5CC5)cc4)nc32)CC1 (stereo not drawn) [Compound 843, methyl 4-[6-{4-[(cyclopropylcarbamoyl)amino]phenyl}-4-(2-methylmorpholin-4-yl)-1H-pyrazolo[3,4-d]pyrimidin-1-yl]piperidine-1-carboxylate] | 900 nM | – |
| 3880 nM | 2000 nM | – | CNC(=O)Nc1ccc(-c2nc(N3C[C@@H](C)O[C@@H](C)C3)c3cnn(C4CCN(Cc5cccnc5)CC4)c3n2)cc1 [Compound 941, 1-(4-{4-[(2R,6S)-2,6-dimethylmorpholin-4-yl]-1-[1-(pyridin-3-ylmethyl)piperidin-4-yl]-1H-pyrazolo[3,4-d]pyrimidin-6-yl}phenyl)-3-methylurea] | 9000 nM | – |
| 154 nM | 1300 nM | – | O=C(Nc1ccc(-c2nc(N3CCOCC3)c3cnn(C4CCNCC4)c3n2)cc1)Nc1ccccn1 [Compound 778, 1-[4-(4-morpholin-4-yl-1-piperidin-4-yl-1H-pyrazolo[3,4-d]pyrimidin-6-yl)phenyl]-3-pyridin-2-ylurea] | 1600 nM | – |
| 37 nM | 650 nM | – | Nc1ncc(-c2nc(N3CCOCC3)c3cnn(C4CCN(C(=O)c5cccnc5)CC4)c3n2)cn1 [Example 215, 5-{4-morpholin-4-yl-1-[1-(pyridin-3-ylcarbonyl)piperidin-4-yl]-1H-pyrazolo[3,4-d]pyrimidin-6-yl}pyrimidin-2-amine] | 1300 nM | – |
| 521 nM | 100 nM | – | CCOC(=O)N1CCC(n2ncc3c(N4CCOC[C@@H]4C)nc(-c4ccc(NC(=O)NCCF)cc4)nc32)CC1 [Compound 895, ethyl 4-{6-(4-{[(2-fluoroethyl)carbamoyl]amino}phenyl)-4-[(3S)-3-methylmorpholin-4-yl]-1H-pyrazolo[3,4-d]pyrimidin-1-yl}piperidine-1-carboxylate] | 950 nM | – |
| 35 nM | 410 nM | – | Oc1cccc(-c2nc(N3CCOCC3)c3cnn(C4CCCCC4)c3n2)c1 [Example 91, 3-(1-cyclohexyl-4-morpholin-4-yl-1H-pyrazolo[3,4-d]pyrimidin-6-yl)phenol] | 2500 nM | – |
| 2230 nM | 1300 nM | – | COC(=O)Nc1ccc(-c2nc(N3CCOCC3)c3cnn(C4CCN(C(=O)C(C)C)CC4)c3n2)cc1 [Compound 810, methyl {4-[1-(1-isobutyrylpiperidin-4-yl)-4-morpholin-4-yl-1H-pyrazolo[3,4-d]pyrimidin-6-yl]phenyl}carbamate] | 3000 nM | – |
| 57 nM | 150 nM | – | CNC(=O)Nc1ccc(-c2nc(N3CCOCC3)c3cnn(C4CCN(Cc5ccc(OC)c(O)c5)CC4)c3n2)cc1 [Example 398, 1-(4-{1-[1-(3-hydroxy-4-methoxybenzyl)piperidin-4-yl]-4-morpholin-4-yl-1H-pyrazolo[3,4-d]pyrimidin-6-yl}phenyl)-3-methylurea] | 600 nM | – |
| 16 nM | 27 nM | – | O=C(Nc1ccccc1)Nc1ccc(-c2nc(N3CCOCC3)c3cnn(C4CCN(C(=O)c5ccccc5)CC4)c3n2)cc1 [Example 378, 1-{4-[1-(1-benzoylpiperidin-4-yl)-4-morpholin-4-yl-1H-pyrazolo[3,4-d]pyrimidin-6-yl]phenyl}-3-phenylurea] | 100 nM | – |

Reference: patent publication US20080234262A1 (Wyeth, priority 2007, published 2008)
